The record followed here is ChEMBL document CHEMBL1201862, “PubChem BioAssay data set” (2004).

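Dose response: 5 concentrations. Exposure: 48 h. Format: 96-well plates. Endpoint: linear interpolation; highest concentration if not reached. At the GI50, growth is halved.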 Activity calls are given as the source filed them. No stated cut-off is given here; in the data, active = GI50 up to about 1.1 µM and inactive = higher. Bounds are passed on as bounds.

Test systems include SNB-19; NCI-H460; HCC 2998; HOP-92; SNB-75; M14; HCT-15; SF-295; KM12; TK-10; CCRF-CEM; SK-MEL-5; SF-539; Malme-3M; 786-0; HL-60; MOLT-4; LOX IMVI.
What all share (assay): growth of human tumour cells (NCI), 48 h

Consider `CC(C)N(C(=O)C12C3C4C5(C(=O)O)C(C1C35I)C42C(=O)O)C(C)C` (centres undefined), for which the GI50 is > 100 µM (inactive) in the assay with SNB-19; > 100 µM (inactive) in the assay on NCI-H460; > 100 µM (inactive) with HCC 2998; > 100 µM (inactive) in the assay with HOP-92; 29.1 µM (inactive) in the assay on SNB-75; > 100 µM (inactive) with M14. Further, the GI50 is more than 100 µM with HCT-15; > 100 µM (inactive) with SF-295; > 100 µM (inactive) with KM12; > 100 µM (inactive) in the assay with TK-10; > 100 µM (inactive) in the assay on CCRF-CEM; > 100 µM (inactive) with SK-MEL-5. Further, the GI50 in the assay on SF-539, with Malme-3M, in the assay on 786-0, in the assay with HL-60 and with MOLT-4 was > 100 µM (inactive) throughout.
Consider `COC1=NCc2ccccc2-c2ccccc21`, for which the GI50 in the assay on SNB-19 was > 100 µM (inactive); in the assay on NCI-H460, > 100 µM (inactive); in the assay with SNB-75 it was > 100 µM (inactive); with HCT-15 it was more than 100 µM; with SF-295, > 100 µM (inactive); in the assay with KM12, > 100 µM (inactive). For the same molecule, the GI50 in the assay on TK-10, with CCRF-CEM, in the assay with SK-MEL-5, with SF-539, in the assay on LOX IMVI and with Malme-3M was > 100 µM (inactive) each time. The GI50 in the assay on 786-0, in the assay with HL-60 and in the assay with MOLT-4 was > 100 µM (inactive) each time.
With `Cc1ccc(-n2c3nc(=O)n(C)c(=O)c-3nc3ccccc32)c(C)c1`, the GI50 was 5.28 µM (inactive) in the assay with SNB-19; 3.49 µM (inactive) in the assay with NCI-H460; 5.16 µM (inactive) in the assay with HCC 2998; 13.3 µM (inactive) in the assay on SNB-75; 4.76 µM (inactive) with M14; 9.62 µM with HCT-15. For the same molecule, the GI50 in the assay with SF-295 is 10.7 µM (inactive); with KM12, 8.18 µM (inactive); in the assay on TK-10, 13.2 µM (inactive); in the assay on CCRF-CEM, 14.8 µM (inactive); in the assay on SK-MEL-5, 4.73 µM (inactive); with SF-539 it was 13.2 µM (inactive). The GI50 in the assay on LOX IMVI is 12.6 µM (inactive); in the assay with Malme-3M, 3.92 µM (inactive); with 786-0, 5.83 µM (inactive); with HL-60, 6.49 µM (inactive); in the assay on MOLT-4 it was 13.9 µM (inactive).
For `O=C(n1c2ccccc2c2nnc(S)nc21)C(F)(F)F`, the GI50 in the assay with SNB-19, in the assay with NCI-H460, in the assay on HCC 2998, in the assay with HOP-92, with SNB-75 and in the assay with M14 was > 100 µM (inactive) in each case. Moreover, the GI50 in the assay on HCT-15 was more than 100 µM; in the assay on SF-295, > 100 µM (inactive); in the assay on KM12, > 100 µM (inactive); with TK-10 it was 0.962 µM (active); in the assay on CCRF-CEM, > 100 µM (inactive); in the assay with SK-MEL-5, > 100 µM (inactive). The GI50 in the assay on SF-539, with LOX IMVI, with Malme-3M, with 786-0 and in the assay with MOLT-4 was > 100 µM (inactive) in each case.
Regarding `Clc1ccc(C(n2cc(Br)cn2)n2cc(Br)cn2)cc1`, the GI50 is > 10 µM (inactive) in the assay on SNB-19; 16.1 µM (inactive) in the assay on NCI-H460; 16.4 µM (inactive) with HCC 2998; 15 µM (inactive) in the assay with HOP-92; > 10 µM (inactive) in the assay on SNB-75; 16.8 µM (inactive) in the assay with M14. Further, the GI50 in the assay with HCT-15 is 13.8 µM; in the assay with SF-295 it was 15 µM (inactive); in the assay with KM12, 13.5 µM (inactive); in the assay on TK-10, 17.4 µM (inactive); with CCRF-CEM it was 21.3 µM (inactive); in the assay on SK-MEL-5, 14 µM (inactive). In addition, the GI50 in the assay on SF-539 was > 10 µM (inactive); in the assay with Malme-3M, 15.8 µM (inactive); in the assay on 786-0 it was 14.1 µM (inactive); with HL-60 it was 17.8 µM (inactive); with MOLT-4 it was 16.5 µM (inactive).
As to `CN(C)NC(=O)NC12CC3CC(CC(C3)C1)C2`, the GI50 in the assay with SNB-19 was > 100 µM (inactive); in the assay on NCI-H460 it was > 100 µM (inactive); in the assay on HOP-92 it was > 100 µM (inactive); with SNB-75, > 100 µM (inactive); with HCT-15, more than 100 µM; in the assay with SF-295, > 100 µM (inactive). In addition, the GI50 with KM12 is > 100 µM (inactive); with TK-10 it was > 10 µM (inactive); with CCRF-CEM, > 100 µM (inactive); with SK-MEL-5 it was > 100 µM (inactive); with SF-539, > 100 µM (inactive); in the assay on LOX IMVI it was > 100 µM (inactive). Besides, the GI50 in the assay with 786-0, with HL-60 and in the assay with MOLT-4 was > 100 µM (inactive) each time.
For the molecule `Cc1cc2c(cn1)C(=O)OCC2`, the GI50 in the assay with SNB-19, in the assay on NCI-H460, in the assay on HCC 2998, in the assay on SNB-75, with M14 and in the assay with SF-295 was > 100 µM (inactive) in each case. Also, the GI50 in the assay on KM12, in the assay with TK-10, in the assay with CCRF-CEM, in the assay with SF-539, in the assay with LOX IMVI and in the assay with Malme-3M was > 100 µM (inactive) throughout. Moreover, the GI50 with 786-0, in the assay with HL-60 and in the assay on MOLT-4 was > 100 µM (inactive) throughout.
For the molecule `COc1cc2c(cc1OC)C1Cc3ccc(OC)c(OC)c3C[N+]1([O-])CC2` (centres undefined), the GI50 in the assay on SNB-19, with NCI-H460, with HCC 2998, in the assay on SNB-75, in the assay with M14 and in the assay with SF-295 was > 100 µM (inactive) in each case. Besides, the GI50 in the assay on KM12, in the assay with TK-10, in the assay on CCRF-CEM, with SK-MEL-5, in the assay with SF-539 and with Malme-3M was > 100 µM (inactive) in each case. Further, the GI50 in the assay with 786-0 and in the assay on MOLT-4 was > 100 µM (inactive) throughout.
Take `CCOP(=S)(OCC)Oc1ccc2c(c1)OC(=O)C1(Cl)C2(C)C2(Cl)C(=O)Oc3cc(OP(=S)(OCC)OCC)ccc3C12C` (centres undefined): the GI50 in the assay with SNB-19 is 4.8 µM (inactive); in the assay on NCI-H460, 17.5 µM (inactive); in the assay on HCC 2998 it was 17.7 µM (inactive); with SNB-75 it was 16.1 µM (inactive); in the assay with M14 it was 17.7 µM (inactive); in the assay with HCT-15, 20.4 µM. The GI50 with SF-295 was 14.7 µM (inactive); with KM12 it was 15.5 µM (inactive); with TK-10, 25.5 µM (inactive); with CCRF-CEM, 16.9 µM (inactive); with SK-MEL-5, 17 µM (inactive); in the assay with SF-539, 11.1 µM (inactive). Further, the GI50 with LOX IMVI is 19 µM (inactive); in the assay on Malme-3M, 22.6 µM (inactive); with 786-0, 21.1 µM (inactive); in the assay with HL-60 it was 14.7 µM (inactive); in the assay with MOLT-4 it was 20.9 µM (inactive).
